Measurements as given in patent US20200392150A1, “Diaryl-B-Lactam Compound and Preparation Method and Pharmaceutical Use Thereof” (Fudan University, priority 2016, published 2020).

Experiments:
SKOV3 = experiment: In vitro cell growth inhibition assay (MTT); assay type: cell-based, human; conditions: SK-OV-3; SKOV-3 human ovarian cancer cell line, 48 h, MTT; read-out: IC50 SKOV3
Procedure: (§1) 5000 tumor cells per well were seeded into 96-well plate and allowed to adhere overnight. Cells were treated with various concentrations of tested compounds or DMSO (0.2%, as negative control) for 48 h. Then, the medium along with tested compounds or DMSO was discarded and […] per well MTT containing medium (0.5 mg/mL) was added. After incubation at 37° C. for 4 h, the MTT-containing medium was replaced by DMSO (150 μL per well) to dissolve the formazan crystals. Absorbance of the resulting solution was measured by microplate reader (Biotech ELx800) at 540 nm wavelength. Growth inhibition rates were calculated with the absorbance. Half maximal inhibitory concentration (IC50) of each compound was calculated using GraphPad Prism, version 6.0.

Hela = experiment: In vitro cell growth inhibition assay (MTT); assay type: cell-based, human; conditions: Hela human cervical cancer cell line, 48 h, MTT; read-out: IC50 Hela
Procedure: as §1

Structure (SMILES) | IC50 (SKOV3) | IC50 (Hela)
COc1ccc([C@H]2[C@@H](Cc3ccc(O)cc3)C(=O)N2c2cc(OC)c(OC)c(OC)c2)cc1O [Compound 60, (3R,4R)-4-(3-hydroxy-4-methoxyphenyl)-3-(4-hydroxybenzyl)-1-(3,4,5-trimethoxyphenyl)azetidin-2-one] | 2850 nM | 7260 nM
C=CC(=O)OC[C@@]1(OC(=O)C=C)C(=O)N(c2cc(OC)c(OC)c(OC)c2)[C@H]1c1ccc(OC)c(OC(=O)C=C)c1 [Compound 89, ((2S,3R)-3-(acryloyloxy)-2-(3-(acryloyloxy)-4-methoxyphenyl)-4-oxo-1-(3,4,5-trimethoxyphenyl)azetidin-3-yl)methyl acrylate] | 2230 nM | 2450 nM
COc1ccc([C@H]2[C@@H](OS(C)(=O)=O)C(=O)N2c2cc(OC)c(OC)c(OC)c2)cc1O [Compound 74, (3R,4S)-2-(3-(hydroxy)-4-methoxyphenyl)-4-oxo-1-(3,4,5-trimethoxyphenyl)azetidin-3-yl methanesulfonate] | 980 nM | 754 nM
C/C=C1\C(=O)N(c2cc(OC)c(OC)c(OC)c2)[C@H]1c1ccc(OC)c(O)c1 [Compound 55, (S,Z)-3-ethylidene-4-(3-hydroxy-4-methoxyphenyl)-1-(3,4,5-trimethoxyphenyl)azetidin-2-one] | 2760 nM | 2640 nM
COc1ccc([C@H]2[C@H](N=[N+]=[N-])C(=O)N2c2cc(OC)c(OC)c(OC)c2)cc1OCc1ccccc1 [Compound 75, (3S,4S)-3-azido-4-(3-(benzyloxy)-4-methoxyphenyl)-1-(3,4,5-trimethoxyphenyl)azetidin-2-one] | > 10000 nM | > 10000 nM
COc1ccc([C@@H]2N(c3cc(OC)c(OC)c(OC)c3)C(=O)[C@]2(O)CO)cc1OCc1ccccc1 [Compound 84, (3R,4S)-4-(3-(benzyloxy)-4-methoxyphenyl)-3-hydroxy-3-(hydroxymethyl)-1-(3,4,5-trimethoxyphenyl)azetidin-2-one] | 2320 nM | > 10000 nM
C=C1CN(c2cc(OC)c(OC)c(OC)c2)[C@H]1c1ccc(OC)c(O)c1 [Compound 91, (S)-2-methoxy-5-(3-methylene-1-(3,4,5-trimethoxyphenyl)azetidin-2-yl)phenol] | 246 nM | 252 nM
COc1ccc([C@@H]2N(c3cc(OC)c(OC)c(OC)c3)C(=O)[C@]2(O)CO)cc1OC(C)=O [Compound 82, 5-((2S,3R)-3-hydroxy-3-(hydroxymethyl)-4-oxo-1-(3,4,5-trimethoxyphenyl)azetidin-2-yl)-2-methoxyphenyl acetate] | 625 nM | 863 nM
C=CC(=O)N[C@@H]1C(=O)N(c2cc(OC)c(OC)c(OC)c2)[C@H]1c1ccc(OC)c(OC(=O)C=C)c1 [Compound 90, 5-((2S,3S)-3-acrylamido-4-oxo-1-(3,4,5-trimethoxyphenyl)azetidin-2-yl)-2-methoxyphenyl acrylate] | 16 nM | 25 nM
COc1ccc([C@@H]2N(c3cc(OC)c(OC)c(OC)c3)C(=O)[C@]2(C)O)cc1O [Compound 95, (3R,4S)-3-hydroxy-4-(3-hydroxy-4-methoxyphenyl)-3-methyl-1-(3,4,5-trimethoxyphenyl)azetidin-2-one] | 103 nM | 213 nM
COc1ccc([C@@H]2N(c3cc(OC)c(OC)c(OC)c3)C(=O)[C@@]2(COC(C)=O)OC(C)=O)cc1OC(C)=O [Compound 83, ((2S,3R)-3-acetoxy-2-(3-acetoxy-4-methoxyphenyl)-4-oxo-1-(3,4,5-trimethoxyphenyl)azetidin-3-yl)methyl acetate] | > 10000 nM | > 10000 nM
COc1ccc([C@@H]2N(c3cc(OC)c(OC)c(OC)c3)C(=O)[C@]2(C)O)cc1OC(C)=O [Compound 94, 5-((2S,3R)-3-hydroxy-3-methyl-4-oxo-1-(3,4,5-trimethoxyphenyl)azetidin-2-yl)-2-methoxyphenyl acetate] | 147 nM | 94 nM
